Results from patent US11497747B2, “Compositions and methods for treating lung injuries associated with SARS-CoV-2 infections” (priority 2020, dated 2022).

What was measured:
MAP3K2/MAP3K3 [1] = details: p47phox substrate; cited from earlier work
[2] = test system: coronavirus (Murine Hepatitis Virus Strain 1, MHV-1) induced mouse lung injury model; test: survival and body weight loss in mouse coronavirus induced acute lung injury model; details: 3 mg/kgbw retro-orbital once daily for 5 days since 24 hr after virus inoculation
MAP3K2/MAP3K3 [3] = details: MEK5 substrate; cited from earlier work
neutrophils = details: cited from earlier work
[4] = test system: coronavirus (Murine Hepatitis Virus Strain 1, MHV-1) induced mouse lung injury model; test: pulmonary permeability (FITC-albumin in BAL) in mouse coronavirus induced acute lung injury model
[5] = cited from earlier work
MAP3K2/MAP3K3 [6] = test: MAP3K2/MAP3K3-mediated phosphorylation of p47phox; assay type: biochemical
patients = details: cited from earlier work
acute lung injury (ALI) [7] = test: mouse ALI/ARDS models (acid-induced direct insult, LPS-induced indirect insult); assay type: in vivo; details: dependent on MAP3K2/3 and ROS production
[8] = in vivo; cited from earlier work
acute lung injury (ALI) [9] = details: cited from earlier work

Molecule | inhibition of MAP3K2/MAP3K3-mediated phosphorylation of p47phox (MAP3K2/MAP3K3 [1]) | survival rate ([2]; FIG. 6) | body weight loss ([2]; FIG. 7) | inhibition of other substrates of MAP3K2/MAP3K3 such as MEK5 (MAP3K2/MAP3K3 [3]) | ROS levels (neutrophils) | pulmonary permeability ([4]; 2 doses at 3 mg/kgbw retro-orbital, 24 and 33 h after 6000 PFU MHV-1, FIG. 2) | pulmonary permeability ([4]; 3 doses at 3 mg/kgbw retro-orbital, 6, 21 and 32 h after 5000 PFU MHV-1, FIG. 1) | pulmonary permeability ([4]; one dose 3 mg/kgbw retro-orbital at 24 hr after virus inoculation, FIG. 3) | pulmonary permeability ([4]; one dose 3 mg/kgbw retro-orbital at 48 hr after virus inoculation, FIG. 4) | pulmonary permeability ([4]; one dose 3 mg/kgbw retro-orbital at 72 hr after virus inoculation, FIG. 5) | protein binding [5] [%] | affinity as p47phox substrate-specific inhibitor for MAP3K2 and 3 (MAP3K2/MAP3K3 [6]) | ILD/pneumonitis reported in patients in the clinical trials (patients; clinical trials) | patients who developed a pneumothorax (patients; randomized RCC trial) | pneumothorax occurrence (patients; randomized STS trial (8/240)) [%] | ameliorating ALI in the two mouse ALI/ARDS models (acute lung injury (ALI) [7]) | bioavailability [8] | half-life [8] [h] | reduction of ALI in mouse models (acute lung injury (ALI) [9])
Cc1ccc(NC(=O)c2ccc(CN3CCN(C)CC3)cc2)cc1Nc1nccc(-c2cccnc2)n1 [imatinib] | do not inhibit |  |  |  |  |  |  |  |  |  |  |  |  |  |  |  |  |  | 
5-({4-[(2,3-Dimethyl-2H-indazol-6-yl)methylamino]pyrimidin-2-yl}amino)-2-methylbenzenesulfonamide [pazopanib] | low nM levels | does not affect | does not affect | μM levels | elevates ROS levels | significantly reduce | significantly reduce | significantly reduce | significantly reduce | negligible effect | > 99.5 | low nanomolar | 0.1 % of patients | [t]wo of 290 | 3 | effective in ameliorating ALI | 14-21% | 30.9 to 31.9 | 
COC(=O)c1ccc2c(c1)NC(=O)/C2=C(\Nc1ccc(N(C)C(=O)CN2CCN(C)CC2)cc1)c1ccccc1 [nintedanib, Methyl (3Z)-3-{[(4-{methyl[(4-methylpiperazin-1-yl)acetyl]amino}phenyl)amino](phenyl)methylidene}-2-oxo-2,3-dihydro-1H-indole-6-carboxylate] | also inhibits |  |  |  |  |  |  |  |  |  |  |  |  |  |  |  |  |  | has been shown to reduce ALI
